In ChEMBL document CHEMBL3886762, “Substituted pyridizinone derivatives as PDE10 inhibitors” (2016) one finds Ki data, which are given here for 6 compounds.

The Ki is a dissociation constant, usually derived from enzyme kinetics or from competition with a known ligand. High values mean lower affinity, low ones higher affinity.

Chain of cAMP and cAMP-inhibited cGMP 3',5'-cyclic phosphodiesterase 10A (Q9Y233 whole entry): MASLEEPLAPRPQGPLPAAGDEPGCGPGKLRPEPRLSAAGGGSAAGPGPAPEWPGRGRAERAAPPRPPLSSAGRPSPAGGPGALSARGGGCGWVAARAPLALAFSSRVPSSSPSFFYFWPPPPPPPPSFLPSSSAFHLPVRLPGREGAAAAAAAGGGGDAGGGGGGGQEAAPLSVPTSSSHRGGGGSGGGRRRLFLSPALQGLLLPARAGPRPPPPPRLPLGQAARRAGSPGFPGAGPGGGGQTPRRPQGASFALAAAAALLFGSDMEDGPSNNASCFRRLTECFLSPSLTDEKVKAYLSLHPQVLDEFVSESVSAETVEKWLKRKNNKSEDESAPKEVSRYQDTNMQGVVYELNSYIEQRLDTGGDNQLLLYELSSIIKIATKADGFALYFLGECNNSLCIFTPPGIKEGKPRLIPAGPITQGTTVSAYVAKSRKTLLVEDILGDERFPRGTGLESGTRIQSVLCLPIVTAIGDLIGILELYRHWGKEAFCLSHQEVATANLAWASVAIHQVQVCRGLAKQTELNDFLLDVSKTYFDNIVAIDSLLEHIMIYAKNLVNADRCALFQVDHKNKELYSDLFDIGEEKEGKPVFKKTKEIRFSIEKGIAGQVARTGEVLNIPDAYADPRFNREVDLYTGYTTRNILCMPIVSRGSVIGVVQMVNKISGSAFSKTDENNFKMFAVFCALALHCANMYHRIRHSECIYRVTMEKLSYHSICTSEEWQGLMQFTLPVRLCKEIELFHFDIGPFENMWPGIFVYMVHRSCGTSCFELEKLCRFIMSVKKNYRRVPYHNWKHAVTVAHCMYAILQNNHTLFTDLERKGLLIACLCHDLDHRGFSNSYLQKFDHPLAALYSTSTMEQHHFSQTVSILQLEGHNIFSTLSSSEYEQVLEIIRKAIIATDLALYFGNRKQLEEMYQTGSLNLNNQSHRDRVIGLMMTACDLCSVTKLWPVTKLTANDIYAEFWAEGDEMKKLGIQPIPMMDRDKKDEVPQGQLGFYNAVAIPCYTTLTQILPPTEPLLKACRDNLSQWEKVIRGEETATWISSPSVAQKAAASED

The test has as its target cAMP and cAMP-inhibited cGMP 3',5'-cyclic phosphodiesterase 10A (Homo sapiens, UniProt Q9Y233). The test is described as follows: Fluorescence Polarization Assay: The fluorescence polarization assay for cyclic nucleotide phosphodiesterases was performed using an IMAP® FP kit supplied by Molecular Devices, Sunnyvale, Calif. (product #R8139). IMAP® technology has been applied previously to phosphodiesterase assays (Huang, W., et al., J. Biomol Screen, 2002, 7: 215). (In general: In fluorescence polarisation assays a small probe gives low polarisation when free and higher when bound to something large.)
In the case of `Cc1nnc(CNc2cc(OC[C@H]3C[C@@H]3c3nn(C)c4ccccc34)nn(C)c2=O)s1`, the Ki worked out at 0.905 nM. This counts as sub-nanomolar. Then `COc1ccc([C@H]2C[C@@H]2COc2cc(NCc3cnn(C(F)F)c3)c(=O)n(C)n2)nc1`, with 0.144 nM; and `Cc1ccc(CNc2cc(OC[C@H]3C[C@@H]3c3ccn(C)n3)nn(C)c2=O)nc1`, with 0.473 nM; and `Cc1nnc(CNc2cc(OC[C@H]3C[C@@H]3c3ccc4c(n3)CCC4)nn(C)c2=O)s1`, with 0.002 nM.

On to `Cc1nnc(CNc2cc(OC[C@H]3C[C@@H]3c3ccn(C)n3)nn(C)c2=O)s1`, for which the affinity, expressed as Ki, was 0.1 nM. Regarding `Cc1nnc(CNc2cc(OC[C@H]3C[C@@H]3c3ccc4ccccc4n3)nn(C)c2=O)s1`, affinity was put at a Ki of 0.001 nM.
